Several values for one entry are separate records, joined by “and”; a condition that tells them apart may be missing. Equal entries are not always repeated. Where two headings read alike, the source gives them in different places.
Legend:
[1] = system: cotton (COTT); experiment: Multi-crop greenhouse test, COUNTER 15G and safener PPI, herbicide POE (Examples 62-64; Tables 61-63); type: in vivo; parameters: dose or concentration left out as unconfirmed; details: Gossypium hirsutum, Table 63, Biocide No. 1 8.96 Kg/Ha, antidote 4.48 Kg/Ha PPI where in label
Method: (§1) Tests according to this invention in various crops indicate widespread application of the invention. In Examples 62-66 below are described tests with a variety of herbicides contacted with COUNTER® 15G in the presence and absence of MON-7400 (Antidote No. 12); MON-13900 (No. 1); MON-4660 (No. 16) and flurazole (No. 16). Those tests were conducted according to Procedures IV or V described above and illustrated further in other foregoing examples. Plants used in all tests were, for crops (as abbreviated in parentheses); cotton (COTT); soybean (SOBE); CORN, grain sorghum (GRSO); wheat (WHEA) and RICE, and the weeds giant foxtail (GIFT) and velvetleaf (VELE). The data in the tables below represent averages of two replications.
(§2) In this test the crops and weeds were planted 1.3 cm deep in 13.7 cm X 27.7 cm pans containing Dupo silt loam soil. The test safeners were applied in acetone solution and COUNTER 15G as dry granules to soil cover layers and incorporated by shaking in a bag. Treated cover layers were placed on seeded pans which were transferred to greenhouse benches and subirrigated. Herbicide was applied POE six (6) days after PPI initiation and observations of plant injury made ten (10) days later; results are shown in Table 61. The herbicide used in this example was BEACON (No. 8).
(§3) The test procedure described in Example 62 was repeated using ACCENT® (Herbicide No. 7) as the herbicide; the biocide and safeners were the same.

[2] = system: wheat (WHEA); experiment: Multi-crop greenhouse test, herbicide POE (Examples 62-64; Tables 61-63); type: in vivo; parameters: dose or concentration left out as unconfirmed; details: Triticum aestivum, Table 63, Biocide No. 1 8.96 Kg/Ha, antidote 4.48 Kg/Ha PPI where in label
Method: as §1, §2, §3

[3] = system: Giant foxtail (GIFT); experiment: as above; type: in vivo; parameters: dose or concentration left out as unconfirmed; details: Setaria faberi, Table 63, Biocide No. 1 8.96 Kg/Ha, antidote 4.48 Kg/Ha PPI where in label
Method: as §1, §2, §3

[4] = system: soybean (SOBE); experiment: as above; type: in vivo; parameters: dose or concentration left out as unconfirmed; details: Glycine max, Table 63, Biocide No. 1 8.96 Kg/Ha, antidote 4.48 Kg/Ha PPI where in label
Method: as §1, §2, §3

[5] = system: grain sorghum (GRSO); experiment: as above; type: in vivo; parameters: dose or concentration left out as unconfirmed; details: Biocide No. 1 8.96 Kg/Ha, antidote 4.48 Kg/Ha PPI where in label
Method: as §1, §2, §3

[6] = system: RICE; experiment: as above; type: in vivo; parameters: dose or concentration left out as unconfirmed; details: Oryza sativa, Table 63, Biocide No. 1 8.96 Kg/Ha, antidote 4.48 Kg/Ha PPI where in label
Method: as §1, §2, §3

[7] = system: Velvetleaf (VELE); experiment: as above; type: in vivo; parameters: dose or concentration left out as unconfirmed; details: Abutilon theophrasti, Table 63, Biocide No. 1 8.96 Kg/Ha, antidote 4.48 Kg/Ha PPI where in label
Method: as §1, §2, §3

[8] = system: Corn; experiment: as above; type: in vivo; parameters: inhibition: dose or concentration left out as unconfirmed; details: Zea mays, Table 63, Biocide No. 1 8.96 Kg/Ha, antidote 4.48 Kg/Ha PPI where in label
Method: as §1, §2, §3

[9] = system: Corn
[10] = system: Corn; experiment: Field trials, PPI, PRE and POE herbicide applications with terbufos (Example 7); type: in vivo; details: mean of five locations, soil-applied insecticide prior to planting
Source text: This example summarizes the results of one series of field trials from a plurality of locations and soil types wherein test chemicals were applied in various modes including pre-plant incorporated (PPI), post emergence (POE) and preemergence (PRE) with and without a safener (antidote). Test Chemicals were Herbicide Nos 1, 2, 3 and 7-9; Insecticide No. 1 and Antidote No. 1.
In these trials Insecticide No. 1 (terbufos) was T-banded or furrow applied at labeled rates prior to planting corn. PPI herbicide treatments were applied prior to insecticide applications; PRE treatments were applied after the insecticide application either prior to or after seeding the corn. POE herbicide applications were made at 2 corn-growth stages, i.e., early post (EP) at the 2-3 leaf stage and late post (LP) at the 4-7 leaf stage. Plots were small plot with 3 replications in a randomized complete block design. In the PRE and PPI herbicide treatments, Antidote No. 1 was applied as a tankmix in both treatments. In the POE herbicide treatments, that antidote was applied as a tank mix with the herbicide at the EP and LP stages.

[11] = system: Shattercane (SHCA); type: in vivo
[12] = system: Velvetleaf (VELE); type: in vivo, Abutilon theophrasti
[13] = Herb. No. 18 (PURSUIT) 0.009 Kg/Ha POE
[14] = Herb. No. 18 (PURSUIT) 0.035 Kg/Ha POE
[15] = Herb. No. 18 (PURSUIT) 0.14 Kg/Ha POE
[16] = Herbicide No. 7 0.28 Kg/Ha POE alone, 13 days after planting
[17] = Herbicide No. 7 0.28 POE + Biocide No. 1 8.96 Kg/Ha PPI, 13 days after planting
[18] = Herbicide No. 7 alone, POE 5 DAP, observed 13 DAP
[19] = Table 14: no antidote, Herbicide No. 7 0.84 Kg/Ha POE and/or Biocide No. 2 8.96 Kg/Ha PPI, per label, 13 days after planting
[20] = Table 50, Herbicide No. 7 0.56 Kg/Ha POE, where applied Biocide No. 8 8.96 kg/Ha and antidote 4.48 Kg/Ha PPI, observed 9 days after POE
[21] = no antidote, […], 13 days after planting

CCc1cnc(C2=NC(C)(C(C)C)C(=O)N2)c(C(=O)O)c1 (stereo not shown) [Herb. No. 18]
inhibition [1, 13]: 40% | inhibition [1, 14]: 45% | inhibition [1, 15]: 50% | inhibition [2, 13]: 0% | inhibition [2, 14]: 20% | inhibition [2, 15]: 35% | inhibition [3, 13]: 60% | inhibition [3, 14]: 80% | inhibition [3, 15]: 80% | inhibition [4, 13]: 5% | inhibition [4, 14]: 10% | inhibition [4, 15]: 10% | inhibition ([5]; Table 63, Herb. No. 18 (PURSUIT) 0.009 Kg/Ha POE): 60% | inhibition ([5]; Table 63, Herb. No. 18 (PURSUIT) 0.035 Kg/Ha POE): 65% | inhibition ([5]; Table 63, Herb. No. 18 (PURSUIT) 0.14 Kg/Ha POE): 75% | inhibition [6, 13]: 20% | inhibition [6, 14]: 45% | inhibition [6, 15]: 60% | inhibition [7, 13]: 75% | inhibition [7, 14]: 95% | inhibition [7, 15]: 100% | inhibition [8, 13]: 5% | inhibition [8, 14]: 25% | inhibition [8, 15]: 40%

COc1cc(OC)nc(NC(=O)NS(=O)(=O)c2ncccc2C(=O)N(C)C)n1 [Herbicide No. 7, reference compound]
safety to corn ([9]; ACCENT alone, no insecticide, 0.28 to 0.84 kg/ha): completely safe | % Inhibition Corn [9, 16]: 0% | % Inhibition Corn [9, 17]: 60% | % Inhibition Corn [9, 18]: 0% | % Inhibition Corn [9, 19]: 0% | % Inhibition Corn [9, 20]: 10% | % Inhibition Corn [9, 21]: 0% | interaction with Insecticide No. 1 after POE herbicide [10]: Significant increased growth reduction | % Inhibition SHCA [11, 16]: 70% | % Inhibition SHCA [11, 17]: 75% | % Inhibition SHCA [11, 18]: 75% | % Inhibition SHCA [11, 19]: 75% | % Inhibition SHCA [11, 20]: 75% | % Inhibition SHCA ([11]; in vivo): 75% | % Inhibition SHCA [11, 21]: 75% | % Inhibition VELE [12, 16]: 60% | % Inhibition VELE [12, 17]: 65% | % Inhibition VELE [12, 18]: 70% | % Inhibition VELE [12, 19]: 65% | % Inhibition VELE [12, 20]: 80% | % Inhibition VELE ([12]; in vivo): 60% and 75% | % Inhibition VELE [12, 21]: 60%

— EP0565593B1, “REDUCING PESTICIDAL INTERACTIONS IN CROPS” (priority 1990, dated 1992)
